Source: patent publication US20250236589A1, “THERAPEUTIC PHENETHYLAMINE COMPOSITIONS AND METHODS OF USE” (Cybin IRL Limited, priority 2022, published 2025)
Marks after values point to notes of the source that are not given here.

What was measured:
5-HT2A receptor = 5-HT2A receptor (Homo sapiens (Human), UniProt P28223); assay: 5-HT2A radioligand binding ([125I](±)DOI)
5-HT1A receptors = 5-HT1A receptors (Homo sapiens (Human), UniProt P08908); assay: 5-HT1A radioligand binding ([3H]8-OH-DPAT)
Description: In another series of 5-HT1A,2A,2B radioligand competition binding assays, the conditions were as follows: For 5-HT1A assays, cell membrane homogenates (˜30 μg protein) derived from HEK-293 cells expressing human 5-HT1ARs were incubated with 0.5 nM [^3H]8-hydroxy-2-(di-n-propylamino)tetralin ([^3H]8-OH-DPAT) for 60 min at room temperature in the presence or absence of the test article. Non-specific binding was determined in the presence of 10 μM 8-OH-DPAT. Samples were then analyzed as described above, with only immaterial differences. […] Samples were then analyzed as described above.

mice = assay: Head-twitch response (HTR) screening in mice; type: in vivo, mouse
Description: Protocols were followed according to Canal C E, Morgan D. Head-twitch response in rodents induced by the hallucinogen 2,5-dimethoxy-4-iodoamphetamine: a comprehensive history, a re-evaluation of mechanisms, and its utility as a model. […] Mice were housed in standard laboratory cages with ad libitum access to food and water and were acclimated to the vivarium for at least one week prior to testing in a procedure room. In a typical experiment, mice were injected 3 mg/kg of test article subcutaneously. Mice were placed immediately thereafter in a clear, polycarbonate box (46×20×20 cm), and HTRs were counted at various time points after administration using hand-held tally counters. In a separate experiment, plasma and brain samples were collected at 15 and 160 minutes after administration of test compounds to measure plasma and brain concentrations. Quantification was performed using LC-MS/MS method (LLOQ, 9 nM).

[1] = In vitro liver microsome stability (MsLM); type: in vitro ADME; conditions: mouse, mouse liver microsomes, 0.5 mg/mL microsomes, NADPH, read-out: MsLM, t1/2
Description: In vitro stability was determined in Human (HLM), Rat (RLM), Mouse (MsLM), and dog (DLM) Liver Microsomes. All liver microsomes were purchased from a commercial supplier (e.g. XenoTech). The reaction mixture, minus NADPH, was prepared as described below. The test compound was added into the reaction mixture at a final concentration of 1 μM or co-dosed with their deuterated analog(s) at 1 μM each. The control compound, testosterone, was run simultaneously with the test compound in a separate reaction. The reaction mixture (without cofactor) was equilibrated in a shaking water bath at 37° C. for 5 minutes. The reaction was initiated by the addition of the cofactor, and the mixture was incubated in a shaking water bath at 37° C. Aliquots (150 μL) were withdrawn at 0, 5, 10, 20, 30, 60, and 120 minutes. Test compound and testosterone samples were immediately combined with 150 μL of ice-cold acetonitrile (ACN) containing 0.1% formic acid and internal standard to terminate the reaction. The samples were then mixed and centrifuged to precipitate proteins. All samples were assayed by LC-MS/MS using electrospray ionization. […] Half-lives were calculated using GraphPad software, fitting to a single-phase exponential decay equation.

Brain protein binding = type: in vitro ADME; conditions: dilute brain homogenate
Description: The CSF concentrations were only 20% of that found in plasma. Concomitantly CSF concentrations were 1.6% of brain concentrations. The CSF/brain ratio corroborates brain protein binding experiments in which the free fraction of compound I-1 in dilute brain homogenate was 1.4%.

For `COc1cc(SC(F)(F)F)c(OC)cc1CCN` [Compound I-1, 2-(2,5-dimethoxy-4-((trifluoromethyl)thio)phenyl)ethan-1-amine], the inhibition at 10 µM (5-HT2A receptor) was greater than 80%, the “binding selectivity for 5-HT2A over 5-HT2B” value (5-HT2A receptor; Ki, [125I]DOI) was roughly 19 fold and the Ki (5-HT2A receptor; radioligand [125I](±)DOI) was 0.35 nM. The inhibition at 0.1 µM (5-HT1A receptors; 100 nM) was 55%, the inhibition at 1 µM (5-HT1A receptors; 1 uM) was 90% and the “HTR 15-25 min” value (mice; calculated using 0-5 min) was 27.4 #. For the same compound, the “HTR 160-170 min” value (mice; calculated using 3 min time bin) was 30.4 ###, the half-life at 1 μM [1] was greater than 2 h and the fraction unbound (Brain protein binding) was 0.014.
